# From patent publication US11447465B2, “Pharmaceutical compounds for treatment of medical disorders” (Achillion Pharmaceuticals, Inc., priority 2017, dated 2022)
# Like-named read-outs stand apart in the source and are kept apart here.
# Target: Human Factor D (Homo sapiens (Human), UniProt P00746)
# Experiment: Human Factor D Assay
# Format: biochemical
# Description: Human Factor D (purified from human serum, Complement Technology, Inc.) at 80 nM final concentration is incubated with test compound at various concentrations for 5 min at room temperature in 50 mM Tris, 1M NaCl, pH 7.5. A synthetic substrate Z-L-Lys-SBzl and DTNB (Ellman's reagent) are added to final concentrations of 100 μM each. Absorbance at 405 nm (A405) is recorded at 30 second intervals for 30 min using a microplate spectrophotometer. IC50 values are calculated by nonlinear regression of Complement Factor D reaction rates as a function of test compound concentration.
# [1] = Table 6, Human Factor D 80 nM, substrate Z-L-Lys-SBzl, read-out: IC5 (Stars)
# [2] = Table 5, Human Factor D 80 nM, substrate Z-L-Lys-SBzl, read-out: IC50 (Stars)
# Human Factor D, sequence (P00746 26-253): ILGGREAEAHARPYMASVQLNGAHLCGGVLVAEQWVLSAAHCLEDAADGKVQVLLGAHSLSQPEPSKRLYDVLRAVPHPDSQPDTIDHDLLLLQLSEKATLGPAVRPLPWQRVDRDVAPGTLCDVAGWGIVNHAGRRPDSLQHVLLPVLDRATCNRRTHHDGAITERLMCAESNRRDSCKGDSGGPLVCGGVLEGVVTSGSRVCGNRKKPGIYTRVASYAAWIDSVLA
"IC50 (Table 7, read-out: IC5 (Stars)) [nM]",Structure (SMILES),other results
1000 to 10000,"COc1cc(CC(=O)N2[C@H](C(=O)Nc3nc(Br)ccc3C)C[C@@]3(C)C[C@@H]23)cc(-c2cnc(OC)nc2)c1 [Compound T-153, (1R,3S,5R)-N-(6-bromo-3-methylpyridin-2-yl)-2-(2-(3-methoxy-5-(2-methoxypyrimidin-5-yl)phenyl)acetyl)-5-methyl-2-azabicyclo[3.1.0]hexane-3-carboxamide]",–
–,"CC(=O)c1nn(CC(=O)N2C[C@H](F)C[C@H]2C(=O)Nc2cccc(Br)n2)c2ccc(O[C@@H]3CO[C@H]4[C@@H]3OC[C@H]4OC(=O)[C@@H](N)C(C)C)cc12 [Compound T-57, (3R,3aR,6R,6aR)-6-((3-acetyl-1-(2-((2S,4R)-2-((6-bromopyridin-2-yl)carbamoyl)-4-fluoropyrrolidin-1-yl)-2-oxoethyl)-1H-indazol-5-yl)oxy)hexahydrofuro[3,2-b]furan-3-yl L-valinate]",IC50 [1]: < 1000 nM
> 10000,"Cc1ccc(Br)nc1NC(=O)[C@@H]1C[C@@]2(C)C[C@H]2N1C(=O)Cc1ccc2[nH]nc(C#N)c2c1 [Compound T-94, (1R,3S,5R)-N-(6-bromo-3-methylpyridin-2-yl)-2-(2-(3-cyano-1H-indazol-5-yl)acetyl)-5-methyl-2-azabicyclo[3.1.0]hexane-3-carboxamide]",–
–,"CC(=O)c1nn(CC(=O)N2C[C@H]3C[C@H]3[C@H]2C(=O)Nc2nc(Br)ccc2C)c2cc(C)sc12 [Compound T-2, (1R,2S,5S)-3-(2-(3-acetyl-5-methyl-1H-thieno[3,2-c]pyrazol-1-yl)acetyl)-N-(6-bromo-3-methylpyridin-2-yl)-3-azabicyclo[3.10]hexane-2-carboxamide]",IC50 [2]: < 1000 nM
> 10000,"COc1ncc(-c2cc(CC(=O)N3C[C@H](F)C[C@H]3C(=O)Nc3cccc(Br)n3)cc(-c3cnc(OC)nc3)c2)cn1 [Compound T-108, (2S,4R)-1-(2-(3,5-bis(2-methoxypyrimidin-5-yl)phenyl)acetyl)-N-(6-bromopyridin-2-yl)-4-fluoropyrrolidine-2-carboxamide]",–
–,"CC(=O)c1nn(CC(=O)N2[C@H](C(=O)Nc3nc(Br)ccc3C)C[C@@]3(CNC(=O)C4CCCC4(F)F)C[C@@H]23)c2c(C)cccc12 (stereo partly drawn) [Compound T-43, (1R,3S,5R)-2-(2-(3-acetyl-7-methyl-1H-indazol-1-yl)acetyl)-N-(6-bromo-3-methylpyridin-2-yl)-5-((2,2-difluorocyclopentane-1-carboxamido)methyl)-2-azabicyclo[3.1.0]hexane-3-carboxamide]",IC50 [2]: < 1000 nM
> 10000,"Cc1ccc(Br)nc1NC(=O)[C@@H]1C[C@@]2(C)C[C@H]2N1C(=O)Cc1cccc(-c2cnc(O)nc2)c1 [Compound T-96, (1R,3S,5R)-N-(6-bromo-3-methylpyridin-2-yl)-2-(2-(3-(2-hydroxypyrimidin-5-yl)phenyl)acetyl)-5-methyl-2-azabicyclo[3.1.0]hexane-3-carboxamide]",–
–,"CC(=O)c1nn(CC(=O)N2[C@H](C(=O)Nc3nc(Br)ccc3C)C[C@@]3(CN4CC5(CCCC5)C4)C[C@@H]23)c2c(C)cccc12 [Compound T-42, (1R,3S,5R)-5-(2-azaspiro[3,4]octan-2-ylmethyl)-2-(2-(3-acetyl-7-methyl-1H-indazol-1-yl)acetyl)-N-(6-bromo-3-methylpyridin-2-yl)-2-azabicyclo[3.1.0]hexane-3-carboxamide]",IC50 [2]: < 1000 nM
> 10000,"Cc1ccc(Br)nc1NC(=O)C1CC2(C)CC2N1C(=O)Cn1nc(NCCC(=O)O)c2ccncc21 (stereo not shown) [Compound T-90, 3-((1-(2-(3-((6-bromo-3-methylpyridin-2-yl)carbamoyl)-5-methyl-2-azabicyclo[3.1.0]hexan-2-yl)-2-oxoethyl)-1H-pyrazolo[3,4-c]pyridin-3-yl)amino)propanoic acid]",–
–,"CC(=O)c1nn(CC(=O)N2[C@H](C(=O)Nc3nc(Br)ccc3C)C[C@@]3(C)C[C@@H]23)c2ccc(NC(=O)C3CCCC3(F)F)cc12 (stereo partly drawn) [Compound T-27, (1R,3S,5R)-2-(2-(3-acetyl-5-(2,2-difluorocyclopentane-1-carboxamido)-1H-indazol-1-yl)acetyl)-N-(6-bromo-3-methylpyridin-2-yl)-5-methyl-2-azabicyclo[3.1.0]hexane-3-carboxamide]",IC50 [2]: < 1000 nM
< 1000,"Cc1ncc(-c2cc(C#N)cc(CC(=O)N3C[C@H](F)C[C@H]3C(=O)Nc3cccc(-c4ccccc4Cl)c3F)c2)cn1 [Compound T-116, (2S,4R)-N-(2′-chloro-2-fluoro-[1,1′-biphenyl]-3-yl)-1-(2-(3-cyano-5-(2-methylpyrimidin-5-yl)phenyl)acetyl)-4-fluoropyrrolidine-2-carboxamide]",–
1000 to 10000,"Cc1ncc(-c2cc(CC(=O)N3C[C@H](F)C[C@H]3C(=O)Nc3cccc(Br)n3)cc(C(N)=O)c2)cn1 [Compound T-167, (2S,4R)-N-(6-bromopyridin-2-yl)-1-(2-(3-carbamoyl-5-(2-methylpyrimidin-5-yl)phenyl)acetyl)-4-fluoropyrrolidine-2-carboxamide]",–
–,"CC(=O)c1nn(CC(=O)N2C[C@H](F)C[C@H]2C(=O)Nc2nc(Br)ccc2C)c2ccc(OCCS(=O)(=O)CC3(C)COC3)cc12 [Compound T-55, (2S,4R)-1-(2-(3-acetyl-5-(2-(((3-methyloxetan-3-yl)methyl)sulfonyl)ethoxy)-1H-indazol-1-yl)acetyl)-N-(6-bromo-3-methylpyridin-2-yl)-4-fluoro-pyrrolidine-2-carboxamide]",IC50 [1]: < 1000 nM
–,"CC(=O)c1cn(CC(=O)N2C3CC3(CN(C)C)C[C@H]2C(=O)NCc2cccc(Cl)c2F)c2cc(P(=O)(O)O)ccc12 (stereo partly drawn) [Compound T-46, (3-acetyl-1-(2-((3S)-3-((3-chloro-2-fluorobenzyl)carbamoyl)-5-((dimethylamino)methyl)-2-azabicyclo[3.1.0]hexan-2-yl)-2-oxoethyl)-1H-indol-6-yl)phosphonic acid]",IC50 [2]: 1000 to 10000 nM
1000 to 10000,"Cc1ncc(-c2cc(CC(=O)N3C[C@H](F)C[C@H]3C(=O)Nc3cccc(-c4ccccc4Cl)c3F)cc(OCC(=O)O)c2)cn1 [Compound T-120, 2-(3-(2-((2S,4R)-2-((2′-chloro-2-fluoro-[1,1′-biphenyl]-3-yl)carbamoyl)-4-fluoropyrrolidin-1-yl)-2-oxoethyl)-5-(2-methylpyrimidin-5-yl)phenoxy)acetic acid]",–
–,"CC(=O)c1nn(CC(=O)N2[C@H](C(=O)Nc3nc(Br)ccc3C)C[C@@]3(CNC(=O)CC(F)(F)F)C[C@@H]23)c2c(C)cccc12 [Compound T-35, (1R,3S,5R)-2-(2-(3-acetyl-7-methyl-1H-indazol-1-yl)acetyl)-N-(6-bromo-3-methylpyridin-2-yl)-5-((3,3,3-trifluoropropanamido)methyl)-2-azabicyclo[3.1.0]hexane-3-carboxamide]",IC50 [2]: < 1000 nM
1000 to 10000,"COc1cc(CC(=O)N2[C@H](C(=O)Nc3nc(Br)ccc3C)C[C@@]3(C)C[C@@H]23)cc(-c2cnc(OC)nc2)c1 [Compound T-97, (1R,3S,5R)-N-(6-bromo-3-methylpyridin-2-yl)-2-(2-(3-methoxy-5-(2-methoxypyrimidin-5-yl)phenyl)acetyl)-5-methyl-2-azabicyclo[3.1.0]hexane-3-carboxamide]",–

Structure (SMILES),"IC50 (Table 7, read-out: IC5 (Stars)) [nM]",other results
"COC(=O)c1cc2c(cc1-c1cnc(C)nc1)c(C(C)=O)nn2CC(=O)N1[C@H](C(=O)Nc2nc(Br)ccc2C)C[C@@]2(C)C[C@@H]12 [Compound T-129, methyl 3-acetyl-1-(2-((1R,3S,5R)-3-((6-bromo-3-methylpyridin-2-yl)carbamoyl)-5-methyl-2-azabicyclo[3.1.0]hexan-2-yl)-2-oxoethyl)-5-(2-methylpyrimidin-5-yl)-1H-indazole-6-carboxylate]",< 1000,–
"CC(=O)c1nn(CC(=O)N2[C@H](C(=O)Nc3nc(Br)ccc3C)C[C@@]3(C)C[C@@H]23)c2cc3sc(C)nc3cc12 [Compound T-84, (1R,3S,5R)-2-(2-(3-acetyl-6-methyl-1H-thiazolo[4,5-f]indazol-1-yl)acetyl)-N-(6-bromo-3-methylpyridin-2-yl)-5-methyl-2-azabicyclo[3.1.0]hexane-3-carboxamide]",< 1000,–
"CC(=O)c1nn(CC(=O)N2[C@H](C(=O)NCc3cccc(Cl)c3F)C[C@@]3(CNC(=O)COCCOCCNC(=O)COCCOCCNC(=O)CC[C@H](NC(=O)CCCCCCCCCCCCCCCCC(=O)O)C(=O)O)C[C@@H]23)c2c(C)cc(NC(=O)N3CCCC(F)(F)C3)cc12 [Compound T-68, (S)-1-((1R,3S,5R)-2-(2-(3-acetyl-5-(3,3-difluoropiperidine-1-carboxamido)-7-methyl-1H-indazol-1-yl)acetyl)-3-((3-chloro-2-fluorobenzyl)carbamoyl)-2-azabicyclo[3.1.0]hexan-5-yl)-24-carboxy-3,12,21,26-tetraoxo-5,8,14,17-tetraoxa-2,11,20,25-tetraazatritetracontan-43-oic acid]",< 1000,–
"Cc1ccc(Br)nc1NC(=O)[C@@H]1C[C@@]2(CNC(=O)COCCOCCNC(=O)COCCOCCNC(=O)CC[C@H](NC(=O)CCCCCCCCCCCCCCCCC(=O)O)C(=O)O)C[C@H]2N1C(=O)Cn1nc(C(N)=O)c2cc(Nc3cccnc3)ccc21 [Compound T-71, (S)-1-((1R,3S,5R)-3-((6-bromo-3-methylpyridin-2-yl)carbamoyl)-2-(2-(3-carbamoyl-5-(pyridin-3-ylamino)-1H-indazol-1-yl)acetyl)-2-azabicyclo[3.1.0]hexan-5-yl)-24-carboxy-3,12,21,26-tetraoxo-5,8,14,17-tetraoxa-2,11,20,25-tetraazatritetracontan-43-oic acid]",< 1000,–
"CC(=O)c1nn(CC(=O)N2[C@H](C(=O)Nc3nc(Br)ccc3C)C[C@@]3(C)C[C@@H]23)c2c(C)cc(NC(=O)C3CCCC3(F)F)cc12 (stereo partly drawn) [Compound T-66, (1R,3S,5R)-2-(2-(3-acetyl-5-(2,2-difluorocyclopentane-1-carboxamido)-7-methyl-1H-indazol-1-yl)acetyl)-N-(6-bromo-3-methylpyridin-2-yl)-5-methyl-2-azabicyclo[3.1.0]hexane-3-carboxamide]",< 1000,–
